Test results reported in ChEMBL document CHEMBL6182920, “The Discovery of C7-Substituted Norbornyl Bisamides as RXFP1 Small Molecule Agonists” (J Med Chem, 2025).
Values after ≈ are worked out from the molar mass of the structure shown.

What was measured:
Relaxin receptor 1 [1] = target: T1, Relaxin receptor 1 (Mus musculus, UniProt Q6R6I7); assay: Agonist activity at mouse RXFP1 stably expressed in HEK293 cells assessed as intracellular cAMP accumulation incubated for 30 mins by HTRF assay; format: functional, cell-based
T1 sequence (Q6R6I7 whole entry): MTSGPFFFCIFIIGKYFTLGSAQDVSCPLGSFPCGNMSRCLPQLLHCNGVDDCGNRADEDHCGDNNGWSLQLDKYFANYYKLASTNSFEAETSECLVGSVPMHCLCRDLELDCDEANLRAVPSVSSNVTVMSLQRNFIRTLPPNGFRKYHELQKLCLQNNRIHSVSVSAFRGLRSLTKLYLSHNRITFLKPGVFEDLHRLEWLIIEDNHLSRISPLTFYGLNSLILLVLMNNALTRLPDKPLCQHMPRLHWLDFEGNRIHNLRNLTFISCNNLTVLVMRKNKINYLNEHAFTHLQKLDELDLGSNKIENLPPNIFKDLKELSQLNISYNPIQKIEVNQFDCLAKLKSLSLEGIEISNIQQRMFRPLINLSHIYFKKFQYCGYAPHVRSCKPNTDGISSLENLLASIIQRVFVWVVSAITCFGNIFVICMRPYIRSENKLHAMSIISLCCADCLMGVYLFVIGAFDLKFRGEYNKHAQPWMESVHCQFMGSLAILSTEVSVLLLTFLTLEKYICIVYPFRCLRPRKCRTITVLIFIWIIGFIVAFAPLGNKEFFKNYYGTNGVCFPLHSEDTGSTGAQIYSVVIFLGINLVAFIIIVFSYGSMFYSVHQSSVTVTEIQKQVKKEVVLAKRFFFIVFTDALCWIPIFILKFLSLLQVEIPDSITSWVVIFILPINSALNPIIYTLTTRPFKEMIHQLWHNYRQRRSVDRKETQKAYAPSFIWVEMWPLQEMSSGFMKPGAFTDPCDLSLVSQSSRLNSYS

[2] = Thermodynamic aqueous solubility of compound in phosphate buffer at pH 7.4 by reversed-phase ultrahigh pressure liquid chromatography; format: physicochemical; details: for solubility thermodynamic: phosphate buffer, read-out: Therm_solubility
Relaxin receptor 1 [3] = target: T2, Relaxin receptor 1 (Homo sapiens, UniProt Q9HBX9); assay: Agonist activity at human RXFP1 stably expressed in HEK293 cells assessed as intracellular cAMP accumulation incubated for 30 mins by HTRF assay
T2 sequence (Q9HBX9 whole entry): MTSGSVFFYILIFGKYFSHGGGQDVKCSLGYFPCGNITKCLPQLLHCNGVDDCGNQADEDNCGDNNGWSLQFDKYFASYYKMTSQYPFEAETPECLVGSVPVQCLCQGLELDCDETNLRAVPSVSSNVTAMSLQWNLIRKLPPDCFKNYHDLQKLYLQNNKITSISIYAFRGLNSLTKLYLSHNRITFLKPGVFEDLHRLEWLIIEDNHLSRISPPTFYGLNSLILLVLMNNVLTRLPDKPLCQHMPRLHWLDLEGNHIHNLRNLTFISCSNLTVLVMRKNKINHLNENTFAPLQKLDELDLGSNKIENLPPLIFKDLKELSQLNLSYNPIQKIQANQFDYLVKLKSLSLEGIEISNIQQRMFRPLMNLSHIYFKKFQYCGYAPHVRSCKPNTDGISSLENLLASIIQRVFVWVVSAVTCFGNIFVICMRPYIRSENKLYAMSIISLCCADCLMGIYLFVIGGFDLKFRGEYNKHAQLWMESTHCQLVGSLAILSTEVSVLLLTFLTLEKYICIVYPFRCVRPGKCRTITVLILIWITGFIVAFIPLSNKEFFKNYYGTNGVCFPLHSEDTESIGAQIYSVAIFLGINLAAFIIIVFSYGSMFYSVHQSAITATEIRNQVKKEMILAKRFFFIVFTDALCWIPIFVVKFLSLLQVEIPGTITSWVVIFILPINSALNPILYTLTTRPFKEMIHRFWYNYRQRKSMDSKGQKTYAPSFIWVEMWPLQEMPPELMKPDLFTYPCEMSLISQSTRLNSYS

Relaxin receptor 1 [4] = target: T3, Relaxin receptor 1 (Rattus norvegicus, UniProt Q6R6I6); assay: Agonist activity at rat RXFP1 stably expressed in HEK293 cells assessed as intracellular cAMP accumulation incubated for 30 mins by HTRF assay; format: cell-based
T3 sequence (Q6R6I6 whole entry): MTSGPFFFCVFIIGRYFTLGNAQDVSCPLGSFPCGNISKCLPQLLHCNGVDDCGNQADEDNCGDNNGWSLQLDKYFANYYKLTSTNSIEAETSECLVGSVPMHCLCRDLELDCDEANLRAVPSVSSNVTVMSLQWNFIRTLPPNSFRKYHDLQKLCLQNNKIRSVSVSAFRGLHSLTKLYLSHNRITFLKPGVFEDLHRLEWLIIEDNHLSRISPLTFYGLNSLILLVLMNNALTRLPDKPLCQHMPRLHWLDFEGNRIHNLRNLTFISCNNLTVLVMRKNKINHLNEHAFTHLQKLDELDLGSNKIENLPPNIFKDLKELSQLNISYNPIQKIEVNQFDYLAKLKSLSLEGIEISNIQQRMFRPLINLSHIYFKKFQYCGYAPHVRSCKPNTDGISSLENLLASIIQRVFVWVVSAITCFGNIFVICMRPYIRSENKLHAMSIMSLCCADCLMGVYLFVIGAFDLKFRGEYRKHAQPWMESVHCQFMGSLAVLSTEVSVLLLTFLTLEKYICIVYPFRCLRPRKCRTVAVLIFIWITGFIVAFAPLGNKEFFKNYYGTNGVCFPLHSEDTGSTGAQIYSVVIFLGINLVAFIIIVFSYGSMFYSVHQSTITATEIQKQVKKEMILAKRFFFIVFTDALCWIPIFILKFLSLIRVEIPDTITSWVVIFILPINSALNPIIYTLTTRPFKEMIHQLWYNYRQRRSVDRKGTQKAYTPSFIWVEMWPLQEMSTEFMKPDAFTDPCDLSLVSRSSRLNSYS

[5] = Microsomal stability in rat liver microsomes assessed as compound remaining measured after 30 mins; format: ADME, Microsome; details: read-out: Stability
[6] = Microsomal stability in mouse liver microsomes assessed as compound remaining measured after 30 mins; format: ADME, Microsome; details: read-out: Stability
[7] = Microsomal stability in human liver microsomes assessed as compound remaining measured after 30 mins; format: ADME, Microsome; details: read-out: Stability
Relaxin receptor 1 [8] = target: T1, Relaxin receptor 1; assay: Partial agonist activity at mouse RXFP1 expressed in HEK293 cells assessed as intracellular cAMP accumulation incubated for 30 mins by HTRF assay; format: functional, cell-based

Row | EC50 (Relaxin receptor 1 [1]) [nM] | EC50 (Relaxin receptor 1 [3]) [nM] | remaining at 0.5 h [5] [%] | remaining at 0.5 h [6] [%] | remaining at 0.5 h [7] [%] | further results | SMILES
1 | 390 | 6 | > 90 | > 90 | > 90 | Therm_solubility ([2]; buffer): 250 µg/mL; EC50 (Relaxin receptor 1 [4]): 590 nM | CNC(=O)OC(C(=O)O)c1ccc(F)c(-c2ccc(OC)c(C(=O)N[C@H]3[C@@H](C(=O)Nc4ccc(F)c(C(F)(F)F)c4)[C@H]4CC[C@@H]3/C4=C\C3CC3)c2)c1 (stereo in doubt; 40)
2 | 740 | 11 | > 90 | > 90 | > 90 | solubility thermodynamic [2]: 130 µg/mL (≈ 191 µM); EC50 (Relaxin receptor 1 [4]): 1200 nM | COc1ccc(-c2cc(CC(=O)O)ccc2F)cc1C(=O)N[C@H]1[C@@H](C(=O)Nc2ccc(F)c(C(F)(F)F)c2)[C@H]2CC[C@@H]1/C2=C\c1cnoc1
3 | – | 3500 | – | – | – | – | COc1cc(F)c(F)cc1C(=O)N[C@H]1[C@@H](C(=O)Nc2ccc(F)c(C(F)(F)F)c2)[C@@H]2CC[C@@H]1C2C(C)C (stereo in doubt)
4 | > 10000 | – | – | – | – | – | COC(=O)c1ccc(F)c(-c2ccc(OC)c(C(=O)N[C@H]3[C@@H](C(=O)Nc4ccc(F)c(C(F)(F)F)c4)[C@H]4CC[C@@H]3C4=C(C)C)c2)c1
5 | 3000 | – | > 90 | > 90 | > 90 | – | COc1ccc(-c2cc(O)ccc2F)cc1C(=O)N[C@H]1[C@@H](C(=O)Nc2ccc(F)c(C(F)(F)F)c2)[C@H]2CC[C@@H]1/C2=C\c1cnoc1
6 | > 20000 | – | – | – | – | – | COc1ccc(-c2ccncc2)cc1C(=O)N[C@H]1[C@@H](C(=O)Nc2ccc(F)c(C(F)(F)F)c2)[C@H]2CC[C@@H]1C2=C(C)C
7 | 6300 | – | – | – | – | – | COc1ccc(-c2cccc(C(=O)O)c2)cc1C(=O)N[C@H]1[C@@H](C(=O)Nc2ccc(F)c(C(F)(F)F)c2)[C@H]2CC[C@@H]1C2=C(C)C
8 | – | 810 | – | – | – | – | COc1cc(F)c(F)cc1C(=O)N[C@H]1[C@@H](C(=O)Nc2ccc(F)c(C(F)(F)F)c2)[C@H]2CC[C@@H]1/C2=C1/C=Cc2ccccc21
9 | 1700 | – | – | – | – | – | COc1ccc(-c2cc(C(=O)O)ccc2C)cc1C(=O)N[C@H]1[C@@H](C(=O)Nc2ccc(F)c(C(F)(F)F)c2)[C@H]2CC[C@@H]1C2=C(C)C
10 | – | 14000 | – | – | – | – | COc1cc(F)c(F)cc1C(=O)N[C@H]1[C@@H](C(=O)Nc2ccc(F)c(C(F)(F)F)c2)[C@@H]2CC[C@@H]1C2C(C)C (single isomer, unassigned; isomer 2)
11 | 940 | – | – | – | – | – | COc1ccc(-c2cc(C(=O)O)ccc2F)cc1C(=O)N[C@H]1[C@@H](C(=O)Nc2ccc(F)c(C(F)(F)F)c2)[C@H]2CC[C@@H]1C2=C(C)C
12 | > 10000 | – | – | – | – | – | COc1ccc(-c2cncnc2)cc1C(=O)N[C@H]1[C@@H](C(=O)Nc2ccc(F)c(C(F)(F)F)c2)[C@H]2CC[C@@H]1C2=C(C)C
13 | > 20000 | – | – | – | – | – | COc1ccc(-c2ccccc2C(=O)O)cc1C(=O)N[C@H]1[C@@H](C(=O)Nc2ccc(F)c(C(F)(F)F)c2)[C@H]2CC[C@@H]1C2=C(C)C
14 | 2300 | 380 | – | – | – | EC50 (Relaxin receptor 1 [8]): 2300 nM | COc1ccc(-c2ccc(C(=O)O)cc2)cc1C(=O)N[C@H]1[C@@H](C(=O)Nc2ccc(F)c(C(F)(F)F)c2)[C@H]2CC[C@@H]1C2=C(C)C
15 | 4600 | – | – | – | – | – | COc1ccc(-c2cc(C(=O)O)ccc2OC)cc1C(=O)N[C@H]1[C@@H](C(=O)Nc2ccc(F)c(C(F)(F)F)c2)[C@H]2CC[C@@H]1C2=C(C)C
16 | 2200 | – | – | – | – | – | COc1ccc(-c2cc(C(=O)O)ccc2F)cc1C(=O)N[C@H]1[C@@H](C(=O)NCc2ccccc2C(F)(F)F)[C@H]2CC[C@@H]1/C2=C\C1CC1
17 | 1100 | 13 | > 90 | > 90 | > 90 | solubility thermodynamic [2]: 60 µg/mL (≈ 86 µM); EC50 (Relaxin receptor 1 [4]): 1100 nM | COc1ccc(-c2cc(C(O)C(=O)O)ccc2F)cc1C(=O)N[C@H]1[C@@H](C(=O)Nc2ccc(F)c(C(F)(F)F)c2)[C@H]2CC[C@@H]1/C2=C\c1cnoc1 (some centres undefined)
18 | 1300 | – | – | – | – | – | COc1ccc(-c2cc(C(=O)O)ccc2F)cc1C(=O)N[C@H]1[C@@H](C(=O)NC2CCCC2)[C@H]2CC[C@@H]1/C2=C\C1CC1
19 | – | 3700 | – | – | – | – | COc1cc(F)c(F)cc1C(=O)N[C@H]1[C@@H](C(=O)Nc2ccc(F)c(C(F)(F)F)c2)[C@H]2CC[C@@H]1/C2=C\c1c(Cl)cccc1Cl
20 | 560 | 22 | > 90 | > 90 | > 90 | solubility thermodynamic [2]: < 1 µg/mL; EC50 (Relaxin receptor 1 [4]): 890 nM | COc1ccc(-c2cc(C(=O)NS(C)(=O)=O)ccc2F)cc1C(=O)N[C@H]1[C@@H](C(=O)Nc2ccc(F)c(C(F)(F)F)c2)[C@H]2CC[C@@H]1/C2=C\c1cnoc1
21 | 110 | 8 | > 90 | > 90 | > 90 | EC50 (Relaxin receptor 1 [4]): 140 nM | CNC(=O)OC(C(=O)O)c1ccc(F)c(-c2ccc(OC)c(C(=O)N[C@H]3[C@@H](C(=O)Nc4ccc(F)c(C(F)(F)F)c4)[C@H]4CC[C@@H]3/C4=C\c3cnoc3)c2)c1 (some centres undefined)
22 | 950 | – | > 90 | > 90 | > 90 | – | COc1ccc(-c2cc(C(N)=O)ccc2F)cc1C(=O)N[C@H]1[C@@H](C(=O)Nc2ccc(F)c(C(F)(F)F)c2)[C@H]2CC[C@@H]1/C2=C\c1cnoc1
23 | > 10000 | – | – | – | – | – | COc1ccc(-c2cccnc2)cc1C(=O)N[C@H]1[C@@H](C(=O)Nc2ccc(F)c(C(F)(F)F)c2)[C@H]2CC[C@@H]1C2=C(C)C
24 | 140 | – | > 90 | > 90 | > 90 | – | COc1ccc(-c2cc(C(=O)O)ccc2F)cc1C(=O)N[C@H]1[C@@H](C(=O)Nc2ccc(F)c(C(F)(F)F)c2)[C@H]2CC[C@@H]1/C2=C\C1CC1
25 | 1300 | 16 | > 90 | > 90 | > 90 | – | COc1ccc(-c2cc(C(=O)O)ccc2F)cc1C(=O)N[C@H]1[C@@H](C(=O)Nc2ccc(F)c(C(F)(F)F)c2)[C@H]2CC[C@@H]1/C2=C\c1ccccc1
